According to the NIST ThermoML archive (doi:10.1016/j.jct.2018.12.018):

Details: Liquid, Vibrating tube method

CC(C)O [propan-2-ol]
mass density [kg/m3]
Details | 333.15 K | 353.15 K | 373.15 K | 393.15 K
1000 kPa | – | 729.8 | 706.6 | 680.4
5000 kPa | – | 735 | 712.8 | 688.2
10000 kPa | – | 741 | 719.9 | 696.7
15000 kPa | – | 746.5 | 726.3 | 704.4
20000 kPa | – | 751.7 | 732 | 711.4
25000 kPa | 773.6 | 756.5 | 737.7 | 717.6
30000 kPa | 777.7 | 761 | 742.9 | 723.5
35000 kPa | 781.5 | 765.4 | 747.8 | 729
40000 kPa | 785.3 | 769.3 | 752.2 | 734.2
45000 kPa | 788.9 | 773.3 | 756.6 | 739
50000 kPa | 792.3 | 777 | 760.7 | 743.5
55000 kPa | 795.6 | 780.6 | 764.7 | 747.9
60000 kPa | 798.7 | 784 | 768.6 | 752.1
65000 kPa | 801.8 | 787.4 | 772.1 | 756.1
70000 kPa | 804.8 | 790.6 | 775.6 | 760
80000 kPa | 810.5 | 796.7 | 782.3 | 767.2
90000 kPa | 815.9 | 802.6 | 788.5 | 773.9
100000 kPa | 820.9 | 808 | 794.4 | 780.2
110000 kPa | 825.8 | 813.2 | 799.9 | 786.2
120000 kPa | 830.4 | 818.1 | 805.3 | 791.8
130000 kPa | 834.8 | 822.8 | 810.2 | 797.2
140000 kPa | 839.2 | 827.3 | 815.1 | 802.3
